Entries after “also recorded” stand apart in the source; their conditions may differ. Read-outs that look alike come from different tables or passages of the source. Bridge positions count the residues as written; N and C are the ends. Peptide text beside a SMILES is read from it.
Experiments:
[1] = in vitro; conditions: isolated enzyme elastase, pH 8
Description: (§1) Human prolactin releasing peptide (hPRP) was used to show a non-ICK example which contains evenly spaced multiple enzyme cleavage sites. […] To mimic gastric degradation of peptides, 10 μL 100 ng/μL pepsin was mixed with 50 μL 100 ng/μL peptides in 1.5 mL tubes containing 20 μL 1 M glycine (pH2.0) and 20 μL distilled water. To study intestinal degradation of peptides, 10 μL 100 ng/μL trypsin was mixed with 50 μL 100 ng/μL peptides in 1.5 mL tubes containing 10 μL 500 mM Tris-HCl (pH8.0) and 30 μL distilled water; 10 μL 100 ng/μL chymotrypsin was mixed with 50 μL 100 ng/μL peptides in 1.5 mL tubes containing 10 μL 500 mM Tris-HCl (pH8.0), 10 μL 100 mM CaCl2, and 20 μL distilled water; 10 μL 100 ng/μL elastase was mixed with each 50 μL 100 ng/μL peptide in 1.5 mL tube containing 10 μL 500 mM Tris-HCl (pH8.0), 10 μL 100 mM KCl, and 20 μL distilled water. Mixtures of peptides and enzymes were incubated at 37°C for 1–4 hours, and 10 μL aliquots was set aside every 1 hour and placed on ice. 5 μL tricine sample buffer was immediately added to the aliquots and denatured at 100°C for 5 minutes to stop digestion.
(§2) Denatured samples were separated by SDS-PAGE using SuperSep Ace 15–20% tricine gel (Wako, Osaka, Japan) at 200 V for 1 hour. Coomassie Brilliant Blue staining of the gel was performed with e-Stain 2.0 Protein Staining System using eStain Protein Staining Pad (GenScript, NJ, USA). Detected bands were digitized by an image scanner and quantified with Image Studio Digits (LI-COR Biosciences, NE, USA).
(§3) Measurements were converted to the rate of degradation compared to the undegraded values. Experiments were repeated in triplicate and results are indicated as means ± SEM. Statistical significance was determined by Tukey-Kramer test and P values of <0.05 were considered significant.

[2] = biological target: α-chymotrypsin (Bos taurus, UniProt P00766); experiment: in vitro; conditions: pH 8
Description: as §1, §2, §3

[3] = tested on: trypsin
Description: as §1, with “Mixtures of peptides and enzymes were incubated at 37°C for 1–4 hours, and 10 μL aliquots was set aside every 1 hour and placed on ice. 5 μL tricine sample buffer was immediately added to the aliquots and denatured at 100°C for 5 minutes to stop digestion.” left out
Denatured samples were separated by SDS-PAGE using SuperSep Ace 15–20% tricine gel (Wako, Osaka, Japan) at 200 V for 1 hour. […] Detected bands were digitized by an image scanner and quantified with Image Studio Digits (LI-COR Biosciences, NE, USA).
Measurements were converted to the rate of degradation compared to the undegraded values. […] Statistical significance was determined by Tukey-Kramer test and P values of <0.05 were considered significant.

[4] = biological target: elastase (Sus scrofa, UniProt P00772); experiment: in vitro
elastase, sequence (P00772 27-266): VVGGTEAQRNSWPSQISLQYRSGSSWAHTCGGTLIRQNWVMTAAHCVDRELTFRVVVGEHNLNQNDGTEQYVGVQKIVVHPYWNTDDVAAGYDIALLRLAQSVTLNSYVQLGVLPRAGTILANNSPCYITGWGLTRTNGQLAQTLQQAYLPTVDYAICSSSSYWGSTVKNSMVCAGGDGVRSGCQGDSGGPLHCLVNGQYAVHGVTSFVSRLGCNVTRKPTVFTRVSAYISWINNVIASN
Description: as §1, §2, §3

[5] = In vivo ProTx-II clearance from circulation; conditions: rat
Description: To observe ProTx-II concentration in circulation blood in vivo, three nonfasted male rats were injected with 0.1 mg/mL/kg of ProTx-II from the femoral vein under isoflurane anesthesia. 450 μL blood samples were taken from the tail vein at 0.083 (5 min), 0.25, 0.5, 1, 2, 4, 8, and 24 hours after the injection using Pasteur pipettes coated with heparin sodium. Plasma was obtained by centrifugation at 10,000 g for 3 minutes at 4°C and stored at −25°C protected from light until analysis. Animal experiments were conducted by Nemoto Science Co., Ltd. (Ibaraki, Japan) in accordance with the guideline of the animal experiment ethics committee (authorization number: 14-0024) and under approval of animal experiment ethics committee of AIST (authorization number: 10150125-A-20131029-001).
(§4) For sample preparation, 100 μL plasma was mixed with 20 μL 50% methanol and 200 μL 4% phosphoric acid. Whole sample mixture was added to the Oasis HLB 1 cc/10 mg extraction cartridge (Waters) equilibrated with 1 mL methanol and 1 mL distilled water. The column was washed with 1 mL 5% methanol and eluted with 1 mL methanol. The elute was dried under nitrogen flow and dissolved in 100 μL solvent A/B (30% : 70%, v/v) for LC-MS/MS. 10 μL sample was analyzed by a Waters LC-MS/MS unit; ACQUITY UPLC BEH HILIC, 1.7 μm, 2.1 mm I.D. × 100 mm (Milford, MA) was used at a flow rate of 0.3 mL/min by linear gradient elution (solvent A : solvent B = 30% : 70%, v/v, solvent A: 0.1% TFA, solvent B: acetonitrile) using electrospray ionization for Xevo TQ MS (Waters, MA, USA).

[6] = tested on: rats; set-up: method as in PMID 18728100; conditions: cited from earlier work
[7] = In vitro ProTx-II degradation in rat blood plasma; type: in vitro ADME; conditions: 1 μg/mL in rat (male SD) blood plasma, 37°C, 24 hours, aliquots at 0, 2, 4, 8, 24 hours; LC-MS/MS; mean of n = 3
Description: To observe peptide degradation in vitro, blood was extracted from three 8-week-old male SD rats after anesthesia with isoflurane inhalation and the plasma was separated by centrifugation at 1,850 g for 10 minutes at 4°C. Plasma was stored on ice and used within the day of the experiment. ProTx-II was added to the plasma to make 1 μg/mL mixture and incubated at 37°C for 24 hours, withdrawing 250 μL aliquots at 0, 2, 4, 8, and 24 hours. Samples were kept at −25°C away from light until analysis.
as §4

Structure (SMILES): CC(C)C[C@@H]1NC(=O)[C@@H](NC(=O)CN)CSSC[C@@H]2NC(=O)[C@@H]3CSSC[C@@H](C(=O)N[C@@H](CC(N)=O)C(=O)N[C@@H](Cc4ccccc4)C(=O)N[C@@H](CO)C(=O)N[C@@H](Cc4ccccc4)C(N)=O)NC(=O)[C@H](CC(C)C)NC(=O)[C@H](CCCCN)NC(=O)[C@H](Cc4ccccc4)NC(=O)[C@H](CC(C)C)NC(=O)[C@H](CCCCN)NC(=O)[C@H](CO)NC(=O)[C@H](CSSC[C@H](NC(=O)[C@H](CCCCN)NC(=O)[C@H](Cc4c[nH]c5ccccc45)NC(=O)[C@H](Cc4c[nH]c5ccccc45)NC(=O)[C@H](Cc4ccccc4)NC(=O)[C@H](CCC(=O)O)NC1=O)C(=O)N[C@@H](CC(N)=O)C(=O)N1CCC[C@H]1C(=O)N[C@@H](CC(N)=O)C(=O)N[C@@H](CC(=O)O)C(=O)N[C@@H](CC(=O)O)C(=O)N[C@@H](CCCCN)C(=O)N3)NC(=O)[C@H](CCCCN)NC(=O)[C@H](CC(C)C)NC(=O)[C@H](CCCCN)NC(=O)[C@@H]1CCCN1C(=O)[C@H](CCCNC(=N)N)NC2=O [GsMTx-4] (H-GCLEFWWKCNPNDDKCCRPKLKCSKLFKLCNFSF-NH2; disulfide 2-17, 9-23, 16-30)
- remaining at 4 h [1]: > 84%
- degradation by chymotrypsin, overall result in words [2]: not degraded at all

Structure (SMILES): CC(C)C[C@@H]1NC(=O)[C@H](Cc2c[nH]c3ccccc23)NC(=O)[C@H](Cc2ccc(O)cc2)NC(=O)[C@H](CCCNC(=N)N)NC(=O)[C@@H](NC(=O)[C@@H](N)CCC(=O)O)CSSC[C@@H]2NC(=O)[C@@H]3CSSC[C@@H](C(=O)N[C@H](C(=O)N[C@@H](Cc4c[nH]c5ccccc45)C(=O)N[C@@H](CC(=O)O)C(=O)NCC(=O)N[C@H](C(=O)N[C@@H](Cc4ccccc4)C(=O)N[C@@H](CO)C(=O)O)[C@@H](C)O)C(C)C)NC(=O)[C@H](Cc4c[nH]c5ccccc45)NC(=O)CNC(=O)[C@H](Cc4c[nH]cn4)NC(=O)[C@H](CCCNC(=N)N)NC(=O)[C@H](CCCNC(=N)N)NC(=O)[C@H](CO)NC(=O)[C@H](CSSC[C@H](NC(=O)CNC(=O)CNC1=O)C(=O)N[C@@H](CO)C(=O)N[C@@H](C)C(=O)NCC(=O)N[C@@H](CCC(N)=O)C(=O)N[C@@H]([C@@H](C)O)C(=O)N3)NC(=O)[C@H](C(C)C)NC(=O)[C@H](CC(C)C)NC(=O)[C@H](Cc1c[nH]cn1)NC(=O)[C@H](CCCCN)NC2=O [ProTx-I]
- digestion by trypsin within 1-hour incubation (in words) ([3]; pH 8): almost completely digested
- degradation by chymotrypsin within 1 hour (in words) [2]: completely degraded
- remaining at 4 h ([4]; isolated enzyme elastase, pH 8): 22%
- degradation by elastase, overall result in words ([4]; pH 8): degraded

Structure (SMILES): CC[C@H](C)[C@H](NC(=O)CNC(=O)[C@H](CCCNC(=N)N)NC(=O)[C@H](CO)NC(=O)[C@H](C)NC(=O)[C@H](Cc1ccc(O)cc1)NC(=O)[C@H](Cc1c[nH]c2ccccc12)NC(=O)[C@H](C)NC(=O)[C@@H]1CCCN1C(=O)[C@H](CC(N)=O)NC(=O)[C@@H](NC(=O)[C@H](CC(=O)O)NC(=O)[C@@H]1CCCN1C(=O)[C@@H](NC(=O)[C@H](CCCNC(=N)N)NC(=O)[C@@H](NC(=O)[C@H](CCC(=O)O)NC(=O)[C@H](CCSC)NC(=O)[C@H](CO)NC(=O)[C@H](Cc1c[nH]cn1)NC(=O)[C@H](CCCNC(=N)N)NC(=O)[C@H](Cc1c[nH]cn1)NC(=O)[C@@H](NC(=O)[C@H](CCCNC(=N)N)NC(=O)[C@@H](N)CO)[C@@H](C)O)[C@@H](C)CC)[C@@H](C)O)[C@@H](C)CC)C(=O)N[C@@H](CCCNC(=N)N)C(=O)N1CCC[C@H]1C(=O)N[C@H](C(=O)NCC(=O)N[C@@H](CCCNC(=N)N)C(=O)N[C@@H](Cc1ccccc1)C(N)=O)C(C)C [hPRP, Human prolactin-releasing peptide]
- digestion by trypsin within 1-hour incubation (in words) ([3]; 10 μL 100 ng/μL trypsin + 50 μL 100 ng/μL peptide, Tris-HCl pH8.0, 37°C, 1 hour, SDS-PAGE, CBB staining, n = 3): almost completely digested
- degradation by chymotrypsin within 1 hour (in words) [2]: completely degraded
- degradation by elastase, overall result in words ([4]; elastase, pH8.0, 37°C, up to 4 hours, SDS-PAGE, CBB staining, mean of n = 3): eventually digested all

Structure (SMILES): CSCC[C@@H]1NC(=O)CNC(=O)[C@H](CCC(=O)O)NC(=O)[C@@H]2CSSC[C@H](NC(=O)[C@@H](N)Cc3ccc(O)cc3)C(=O)N[C@@H](CCC(N)=O)C(=O)N[C@@H](CCCCN)C(=O)N[C@@H](Cc3c[nH]c4ccccc34)C(=O)N[C@@H](CCSC)C(=O)N[C@@H](Cc3c[nH]c4ccccc34)C(=O)N[C@@H]([C@@H](C)O)C(=O)N[C@H]3CSSC[C@H](NC(=O)[C@H](C(C)C)NC1=O)C(=O)N[C@@H](CCCNC(=N)N)C(=O)N[C@@H](CC(C)C)C(=O)N[C@@H](Cc1c[nH]c4ccccc14)C(=O)N[C@H](C(=O)N[C@@H](CCCCN)C(=O)N[C@@H](CCCCN)C(=O)N[C@@H](CCCCN)C(=O)N[C@@H](CC(C)C)C(=O)N[C@@H](Cc1c[nH]c4ccccc14)C(=O)O)CSSC[C@H](NC(=O)[C@H](CCCCN)NC(=O)[C@H](CCCNC(=N)N)NC(=O)[C@H](CCC(=O)O)NC(=O)[C@H](CO)NC(=O)[C@H](CC(=O)O)NC3=O)C(=O)N2 [ProTx-II]
- level at 8 h ([5]; male, plasma, iv, 0.1 mg/mL/kg into the femoral vein, 8 hours after administration, LC-MS/MS, n = 3, read-out: ProTx-II concentration in circulation blood at 8 hours (detection limit)): < 30 ng/mL
- time for concentration to drop to the detection limit ([5]; 0.1 mg/mL/kg into the femoral vein, detection limit 30.0 ng/mL, LC-MS/MS, n = 3): ≤ 8 h
- concentration in circulation corresponding to the detection limit of 30 ng/mL ([5]; 8 hr, molar conversion of the detection limit): 7.8 nM
- remaining at 4 h ([2]; isolated enzyme chymotrypsin): 86%
- peptide remaining undigested with elastase at 4 hours ([4]; elastase, Tris-HCl pH8.0, KCl, 37°C, 4 hours, SDS-PAGE, CBB staining, band quantification, mean of n = 3): over 84%
- mortal plasma concentration ([6]; 1 mg/kg dosage): 3 µM
- dosage reported to be lethal in rats [6]: 1 mg/kg
- degradation in rat blood plasma in vitro (in words) [7]: not degraded at all; also recorded: No ProTx-II degradation was observed
